Data on seven molecules can be found in patent US20240217946A1, “ANTIDEPRESSANT AND ANXIOLYTIC SUBSTITUTED CINNAMAMIDE COMPOUND” (TASLY PHARMACEUTICAL GROUP CO., LTD., priority 2021, published 2024).

Entries after “also recorded” stand apart in the source; their conditions may differ. Counter-ions that a name gives are not always drawn. Marks after values point to notes of the source that are not given here.

For experiment [1], the system named is DA reuptake in rat brain synaptosomes. Briefly: 3H-DA reuptake by rat brain synaptosomes. The experiment is classed as biochemical. The note with it: 100 μM, positive control. From the text: At present, it is believed that absolute or relative deficiencies of the central monoamine neurotransmitters 5-hydroxytryptamine (5-HT), norepinephrine (NA) and dopamine (DA) are closely related to depression and anxiety. This experiment was designed to evaluate, by the method of in vitro monoamine reuptake, the inhibitory effect of two samples of tested compound I-5 and compound M2 on reuptake of 5-HT, NA and DA in rat brain synaptosomes. The preparation of in vitro SD rat brain synaptosomes and isotopic tracer method were employed to investigate IC50 of inhibition of monoamine reuptake of DA, 5-HT and NA in two tested samples, in order to explore the possible mechanism of antidepressant and anxiolytic effects of compound I-5 and compound M2.
Synaptosomes were separated using methods in literature to prepare brain synaptosomes. SD rats were rapidly decapitated with a small animal decapitator. After decapitation, brains were taken out quickly and precooled in an ice-water mixture, and the pia mater and vascular tissue were removed. Brain tissue was taken out. 10 times volume (ml/g) of 10 mM Tris HCl buffer (containing 0.32 M sucrose, pH 7.4) was added, an ultrasonic cell pulverizer was used for homogenization (maintaining at a low temperature), and the brain tissue was homogenized and centrifuged for 10 min (4° C., 1,000 g). After balanced centrifugation (1500 g, 10 min) at 4° C., precipitate was discarded, then supernatant was taken, and centrifugation (20000 g) was performed again for 30 min. The supernatant was discarded and the precipitate, i.e. crude extract of synaptic corpuscles, was retained. […] The precipitate was suspended in a small amount of Kreb's buffer (NaCl 118 mM, KCl 4.7 mM, CaCl2) 2.5 mM, MgSO4 1.2 mM, KH2PO4 1.2 mM, NaHCO325 mM and Glucose 11.1 mM, pH 7.2-7.4), BCA method was used for protein quantification, and the operation steps were as described in the description. […]
(§1) The percentage inhibition of isotope ligand binding by each compound was calculated according to the following equation: […]

Another experiment relates to mice. The note with it: Patent C; cited from earlier work.
The subject of the next experiment is SD rats. Description: Vogel drinking conflict experiment in rats, single administration. The experiment is classed as in vivo. The note with it: 30 min after single dose, punishment stage 3 min, n = 8. Here is the method:
75 male SD rats, with the body weight of 180-220 g, were fed adaptively for 1 week, water deprived for 24 h for training period test. The animals screened to be qualified were randomly divided into 7 groups (a solvent control group, estazolam group, compound M2 group, compound II-3 group, compound II-4 group, compound II-5 group and compound II-10 group) according to their body weight, with 8 rats in each group. […] results of 3.1: the positive drug estazolam was administered intragastrically at 1.24 mg/kg; and the solvent control group was gavaged with an equal volume of solvent. The grouped animals were continued to be water deprived for 24 h and were given a single dose, and tested in a punishment experiment 30 min after the single dose.
The experiment was carried out in two stages. The first stage is a training stage, in which 24 h after water deprivation, animals were placed in an operation box separately, and were allowed to fully explore until they found the bottle mouth and started to lick water (with an intensity of electric shock being 0 mA), a counter automatically recorded the number of licks within 3 min, and the animals that licked water less than 300 times were eliminated.
Observation index: the number of water licks of rats in the punishment stage.
(§2) Data was expressed as mean±standard (mean±SD) difference, and statistics of data differences were made by one-way analysis of variance (ANOVA) or nonparametric test, and differences between groups were determined by P<0.05.

A further experiment concerns ICR mice. Description: Elevated plus maze experiment in mice, single administration. Format: in vivo. The following applies: 30 min after single administration. Here is the method: 50 male ICR mice were randomly divided into 5 groups (a solvent control group, estazolam group, M2 high dosage group, M2 medium dosage group, M2 low dosage group), with 10 mice in each group. The compound M2 high, medium and low dosage groups were intragastrically administered at 20 mg/kg. 10 mg/kg and 5 mg/kg, respectively; the positive drug estazolam was intragastrically administered at 2.5 mg/kg; and the solvent control group was gavaged with an equal volume of solvent. Behavior test was performed in each group 30 min after single administration. The experiments were required to be conducted between 8:00 am and […], and all animals entered the test laboratory on the previous day.
The laboratory was dimly lit (with the lowest brightness that can distinguish the subtle activities of mice at a distance of 1.5 m) and the brightness was kept constant, with a room temperature of about 20° C., and kept quiet. Before the maze test, each mouse was placed in a 35 cm*10 cm*5 cm plastic box and left to explore freely for 5 min and then quickly placed at the central platform of an elevated plus maze, with its head facing one of the open arms, and the following indexes were recorded upon release. Each mouse was tested for 5 min. Observers observed and recorded animal activities at a distance of 1.5 m. At intervals, the maze was wiped with a wet cloth to remove feces, and then wiped with a dry cloth before a next mouse was tested.
• (1) The number of open arm entries (OE): the number of entries into any open arm, based on the fact that all four claws of the mouse entered the arm, and a complete exit of one claw from the arm indicated the completion of the entry activity; • (2) open arm time (OT): the time of entering an open arm, with the unit of seconds; • (3) the number of close arm entries (CE): the number of entries into any close arm, based on the fact that all four claws of the mouse entered the arm; • (4) close arm time (CT): the time of entering a close arm, with the unit of seconds; • (5) percentage of open arm time: OT %=OT/(OT+CT)*100%; and • (6) percentage of open arm entries: OE %=OE/(OE+CE)*100%.
70 male ICR mice were randomly divided into 7 groups (a solvent control group, estazolam group, compound M2 group, compound II-3 group, compound II-4 group, compound II-5 group, and compound II-10 group), with 10 mice in each group. The dosage of M2 and its four structurally similar compounds was determined as 20 mg/kg according to the experimental results of 3.1: the positive drug estazolam was administered intragastrically at 2.5 mg/kg; and the solvent control group was gavaged with an equal volume of solvent. Behavior test was performed in each group 30 min after single administration. The experiments were required to be conducted between 8:00 am and […], and all animals entered the test laboratory on the previous day.
The behavioral test method and behavioral observation indexes were the same as those in 3.1.
as §2

Experiment [2] concerns NA reuptake in rat brain synaptosomes. Description: 3H-NA reuptake by rat brain synaptosomes. Format: biochemical. The following applies: 100 μM, positive control.
Description: At present, it is believed that absolute or relative deficiencies of the central monoamine neurotransmitters 5-hydroxytryptamine (5-HT), norepinephrine (NA) and dopamine (DA) are closely related to depression and anxiety.
Synaptosomes were separated using methods in literature to prepare brain synaptosomes. SD rats were rapidly decapitated with a small animal decapitator. After decapitation, brains were taken out quickly and precooled in an ice-water mixture, and the pia mater and vascular tissue were removed. Brain tissue was taken out. 10 times volume (ml/g) of 10 mM Tris HCl buffer (containing 0.32 M sucrose, pH 7.4) was added, an ultrasonic cell pulverizer was used for homogenization (maintaining at a low temperature), and the brain tissue was homogenized and centrifuged for 10 min (4° C., 1,000 g). After balanced centrifugation (1500 g, 10 min) at 4° C., precipitate was discarded, then supernatant was taken, and centrifugation (20000 g) was performed again for 30 min. The supernatant was discarded and the precipitate, i.e. crude extract of synaptic corpuscles, was retained. The precipitate was further suspended in 0.32 M cold sucrose solution and then carefully laid on 1.2 M and 0.8 M (10 ml each) cold sucrose gradient solutions which had been laid sequentially on the bottom of the tube, followed by balanced centrifugation (38000 g) at 4 °C for 60 min. A suspension band at the 0.8-1.2 M sucrose interface was carefully collected with a puncture needle, which was placed in 10 ml of 0.32 M cold sucrose solution and mixed well, and equilibrium centrifuged (20000 g) at 4 °C for 30 min. The precipitate was refined brain synaptosomes. […]
as §1

The subject of experiment [3] is pyramidal neurons in prefrontal PrL brain area. Briefly: Brain slice electrophysiology, sEPSC of mPFC pyramidal neurons. Format: cell-based, mice. The note with it: antagonist at working concentration 10 μM. The source says: 2) Brain Slice Electrophysiological Experiment: For Detecting Effect of Compound M2 on mPFC Excitatory Synaptic Transmission • Animal: neonatal mice C57 BL/6J (20-30 days). • Instrument: vibratome (Leica), brain slice electrophysiological system (Axon). • Brain slice electrophysiological experiment method • SEPSC experiment method: Neonatal C57 mice were anesthetized and then perfused with artificial cerebrospinal fluid (ACSF). After decapitation, brain tissue was taken quickly and sliced by vibratome, with a thickness of a brain slice being 300 μm. After the brain slices were incubated at 28 °C for 1 h, whole-cell recordings of mPFC pyramidal neurons were made using a voltage clamp (−70 mV) through a brain slice electrophysiological system. The baseline recording time was 6 min, and then a drug to be tested was added through a perfusion system (the drug was dissolved using ACSF), and the recording time after adding the drug was 6-10 min. Recorded data was analyzed using Minianalysis software, and effects of the drug to be tested on sEPSC frequency and amplitude of medial prefrontal pyramidal neurons in C57 mice were compared.
All data analysis was done using spss data processing software, and data was expressed by Mean±s.e.m. One-way ANOVA was used to analyze the effect of compound M2 and the effect of compound M2 under the action of dopamine receptor antagonists on sEPSC current: and paired t test was used to analyze sEPSC experimental results. * was marked when p<0.05.
During the experiment, 10 μM Bicuculine was added to the solution to block GABA receptor, so as to record sEPSC of pyramidal neurons. The experiment investigated effects of different concentrations of compound M2 on spontaneous excitatory postsynaptic […] (sEPSC) of pyramidal neurons in prefrontal PrL brain area, as shown in FIG. 2.

In another experiment the test system is C57 BL/6J male mice. Briefly: Forced swimming experiment in mice. The experiment is classed as in vivo. The following applies: 24 h after a single i.p. administration; fluoxetine 10 mg/kg, esketamine 10 mg/kg, M2 3-30 mg/kg. The source says: 1) Forced Swimming Experiment: Also Known as Despair Experiment, an Experiment Usually Used to Test Depression-Like Behavior of Mice
• Animal: C57 BL/6J male mice (18-20 g)
Intraperitoneal injection (i.p)

The mark [4] stands for this setting: comparative study (Table 13), 20 mg/kg i.g.
Where [5] appears, read: comparative study (Table 13), 2.5 mg/kg i.g.
Setting [6] is: dosage exploration study (Table 12), 2.5 mg/kg i.g.

For the molecule `Br.NCCc1cc(O)c(O)cc1O` [6-Hydroxydopamine hydrobromide], the “inhibition of 3H-DA reuptake by synaptosomes” value in experiment [1] turned out to be 100%.

`CC(C)CNC(=O)/C=C/c1cc(I)c2c(c1)OCO2` [Compound II-3]: the “effective anxiolytic dosage in mice elevated plus maze experiment” value in the experiment on mice was 10 mg/kg. For the same molecule, in the experiment with SD rats (10 mg/kg i.g.), the “Number of times of drinking water” value came out at 363.96 ± 145.26. For the same molecule, in the experiment with ICR mice (setting [4]), the OE % is 41.04 ± 9.52 % and the OT % came to 42.99 ± 11.82 %.

With `CNCCCN1c2ccccc2CCc2ccccc21` [Desipramine hydrochloride], in experiment [2], the “inhibition of 3H-NA reuptake by synaptosomes” value is on record as 100%.

Turning to `Clc1ccc2c(c1)C(c1ccccc1)=NCc1nncn1-2` [Estazolam], in the experiment on SD rats (1.24 mg/kg i.g.), the “Number of times of drinking water” value is on record as 540.41/kg2.25*. The OE % came to 69.60 ± 15.12 % with ICR mice (setting [5]) and 42.78 ± 15.27 % in the experiment with ICR mice (setting [6]). The results for the OT % in the experiment on ICR mice (setting [5]) and in the experiment on ICR mice (setting [6]) were 73.46 ± 20.29 % and 50.12 ± 12.76 %, respectively.

For the molecule `CCN1CCCC1CNC(=O)c1cc(S(N)(=O)=O)ccc1OC` (centres unmarked) [Sulpride], the “blocking of the enhancement effect of 150 μM compound M2 on sEPSC distribution frequency” value in experiment [3] is “can block the enhancement effect; also recorded: significantly block”.

On to `CN[C@]1(c2ccccc2Cl)CCCCC1=O` [esketamine, Esketamine], for which the antidepressant-like effect entry in the experiment on C57 BL/6J male mice is reported as “had antidepressant-like effect”.

On to `CNCCC(Oc1ccc(C(F)(F)F)cc1)c1ccccc1` (centres unmarked) [fluoxetine, Fluoxetine], for which the antidepressant-like effect result with C57 BL/6J male mice is “no antidepressant-like effect”.
